The results in this text go back to patent US20230113037A1 (Bayer Aktiengesellschaft, priority 2019, published 2023).

Like-named read-outs stand apart in the source and are kept apart here.

Assay [1] deals with T1, AHR (Mus musculus, UniProt P30561).
T1 sequence (P30561 1-848 P471L/N533S/M589L): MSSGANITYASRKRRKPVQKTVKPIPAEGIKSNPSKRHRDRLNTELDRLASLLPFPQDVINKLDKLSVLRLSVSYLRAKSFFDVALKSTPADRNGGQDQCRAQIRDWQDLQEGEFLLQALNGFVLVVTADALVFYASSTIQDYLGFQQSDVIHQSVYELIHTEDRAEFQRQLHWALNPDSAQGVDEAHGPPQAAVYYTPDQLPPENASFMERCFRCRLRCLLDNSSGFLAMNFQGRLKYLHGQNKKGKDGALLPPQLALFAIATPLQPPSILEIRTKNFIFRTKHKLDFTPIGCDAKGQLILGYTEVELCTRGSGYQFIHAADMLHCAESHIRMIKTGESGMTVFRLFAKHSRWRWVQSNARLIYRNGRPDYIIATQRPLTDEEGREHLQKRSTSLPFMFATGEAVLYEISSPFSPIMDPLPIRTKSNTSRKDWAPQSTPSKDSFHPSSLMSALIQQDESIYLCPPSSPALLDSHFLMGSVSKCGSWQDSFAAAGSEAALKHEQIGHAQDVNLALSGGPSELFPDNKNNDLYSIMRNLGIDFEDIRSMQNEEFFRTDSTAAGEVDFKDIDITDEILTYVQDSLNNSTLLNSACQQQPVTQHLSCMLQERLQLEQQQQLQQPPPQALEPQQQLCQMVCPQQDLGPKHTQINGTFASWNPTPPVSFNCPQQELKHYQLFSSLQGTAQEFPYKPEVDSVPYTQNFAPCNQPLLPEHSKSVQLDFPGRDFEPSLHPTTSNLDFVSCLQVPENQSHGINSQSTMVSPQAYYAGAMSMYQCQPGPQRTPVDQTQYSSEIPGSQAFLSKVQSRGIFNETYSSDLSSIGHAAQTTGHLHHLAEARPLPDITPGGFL
Briefly: In vitro assay 3: antagonism in mouse cell line (AHR transactivation, firefly luciferase reporter, kynurenic acid prestimulated). In kind it is cell-based. Put shortly:
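Mouse cells stably carrying a DRE-driven AHR-inducible firefly luciferase reporter were prestimulated with the endogenous agonist kynurenic acid before compound addition. Luciferase read by SteadyGlo; cells without kynurenic acid served as full-inhibition control, with normalization to positive and negative controls. Repeat tests reported as mean or median.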

The target of assay [2] is T2, AHR (Homo sapiens, UniProt P35869).
T2 construct: U87 MG glioblastoma cells (ATCC #HTB-14) endogenously expressing AHR; endogenous in cells; host or cells: U87 MG glioblastoma cells (ATCC #HTB-14)
T2 sequence (P35869 11-848): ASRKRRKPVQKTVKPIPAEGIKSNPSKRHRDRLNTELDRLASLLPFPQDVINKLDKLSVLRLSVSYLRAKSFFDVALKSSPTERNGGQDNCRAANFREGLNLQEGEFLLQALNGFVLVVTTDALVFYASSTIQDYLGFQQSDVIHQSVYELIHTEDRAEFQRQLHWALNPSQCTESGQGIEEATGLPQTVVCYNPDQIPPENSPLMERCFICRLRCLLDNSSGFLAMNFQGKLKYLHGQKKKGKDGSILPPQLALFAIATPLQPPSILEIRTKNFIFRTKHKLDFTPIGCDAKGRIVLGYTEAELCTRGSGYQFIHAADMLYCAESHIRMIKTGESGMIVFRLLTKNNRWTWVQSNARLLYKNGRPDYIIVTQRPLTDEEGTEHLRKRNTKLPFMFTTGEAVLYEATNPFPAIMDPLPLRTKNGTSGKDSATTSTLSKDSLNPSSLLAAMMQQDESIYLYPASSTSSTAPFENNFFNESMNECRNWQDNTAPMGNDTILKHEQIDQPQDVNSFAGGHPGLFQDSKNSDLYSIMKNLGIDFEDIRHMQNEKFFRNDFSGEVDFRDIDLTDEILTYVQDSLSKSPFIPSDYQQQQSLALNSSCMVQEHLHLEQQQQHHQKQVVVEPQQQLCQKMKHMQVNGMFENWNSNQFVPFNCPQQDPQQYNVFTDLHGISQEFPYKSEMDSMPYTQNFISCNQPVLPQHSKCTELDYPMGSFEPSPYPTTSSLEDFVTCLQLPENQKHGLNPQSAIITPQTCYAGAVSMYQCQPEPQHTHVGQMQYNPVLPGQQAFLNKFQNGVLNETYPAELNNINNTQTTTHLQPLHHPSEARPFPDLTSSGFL
Kind of assay: In vitro assay 1: antagonism in human cell line (AHR transactivation, firefly luciferase reporter, kynurenic acid prestimulated). Type of assay: cell-based. As to conditions: AHR Antagonism Human IC50 [M]. The procedure, abridged:
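U87 MG + DRE-firefly/constitutive-Renilla stable reporters; kynurenic acid prestim; dual-luc read; Renilla = tox; normalized vs pos/neg controls (pos: 150 μM KYNA + 5 μM staurosporine).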
A general note: A reporter such as luciferase makes a cellular process visible.

[3] abbreviates: mouse Hepa 1c1c7 cells, 200 μM kynurenic acid, 20 hours, read-out: AHR Antagonism Mouse IC50.

Broadly, the IC50 is the concentration that gives 50% inhibition. Take `CS(=O)(=O)c1ccc(-c2nc3c4ccccc4nc(N[C@@H]4CCCCNC4=O)n3n2)cc1` [Example 372, (3R)-3-({2-[4-(methanesulfonyl)phenyl][1,2,4]triazolo[1,5-c]quinazolin-5-yl}amino)azepan-2-one]: the IC50 is 1.73 nM at AHR [1] (setting [3]) and 8.65e-09 M against AHR [2].
`CS(=O)(=O)c1ccc(-c2nc3c4ccccc4nc(N[C@@H]4CCNC4=O)n3n2)cc1` [Example 373, (3R)-3-({2-[4-(methanesulfonyl)phenyl][1,2,4]triazolo[1,5-c]quinazolin-5-yl}amino)pyrrolidin-2-one]: the results for the IC50 on AHR [1] (setting [3]) and at AHR [2] were 514 nM and 6.38e-07 M, respectively.
In the same order, the values of `CS(=O)(=O)c1ccc(-c2nc3c4ccccc4nc(N[C@@H]4CCCNC4=O)n3n2)cc1` [Example 374, (3R)-3-({2-[4-(methanesulfonyl)phenyl][1,2,4]triazolo[1,5-c]quinazolin-5-yl}amino)piperidin-2-one] are 211 nM and 4.49e-07 M.
Turning to `CS(=O)(=O)c1ccc(-c2nc3c4ccccc4nc(N[C@H]4CCCCNC4=O)n3n2)cc1` [Example 375, (3S)-3-({2-[4-(methanesulfonyl)phenyl][1,2,4]triazolo[1,5-c]quinazolin-5-yl}amino)azepan-2-one], the concentration for half-maximal inhibition (IC50) is 30.6 nM at AHR [1] (setting [3]) and 7.95e-07 M on AHR [2].
With `CC[C@@H](Nc1nc2ccccc2c2nc(-c3ccc(S(C)(=O)=O)cc3)nn12)C(N)=O` [Example 376, (2R)-2-({2-[4-(methanesulfonyl)phenyl][1,2,4]triazolo[1,5-c]quinazolin-5-yl}amino)butanamide], the half-maximal inhibitory concentration (IC50) amounted to 4.93 nM on AHR [1] (setting [3]) and 1.61e-08 M against AHR [2].
On to `CCC[C@@H](Nc1nc2ccccc2c2nc(-c3ccc(S(C)(=O)=O)cc3)nn12)C(=O)NC` [Example 377, N^2-{2-[4-(methanesulfonyl)phenyl][1,2,4]triazolo[1,5-c]quinazolin-5-yl}-N-methyl-D-norvalinamide], for which the IC50 was determined as 12.4 nM at AHR [1] (setting [3]) and 3.28e-08 M at AHR [2].
On to `CC[C@@H](Nc1nc2ccccc2c2nc(-c3cccc(S(C)(=O)=O)c3)nn12)C(N)=O` [Example 378, (2R)-2-({2-[3-(methanesulfonyl)phenyl][1,2,4]triazolo[1,5-c]quinazolin-5-yl}amino)butanamide], for which the figures for the concentration for half-maximal inhibition (IC50) on AHR [1] (setting [3]) and against AHR [2] were 171 nM and 6.25e-07 M, respectively.
For `CC[C@@H](Nc1nc2ccccc2c2nc(-c3ccc(OC)cc3)nn12)C(N)=O` [Example 379, (2R)-2-{[2-(4-methoxyphenyl)[1,2,4]triazolo[1,5-c]quinazolin-5-yl]amino}butanamide], the IC50 on AHR [1] (setting [3]) is 0.993 nM; against AHR [2], 7.6e-10 M.
Regarding `N#Cc1cccc(-c2nc3c4ccccc4nc(N[C@@H]4CCCCNC4=O)n3n2)c1` [Example 381, 3-(5-{[(3R)-2-oxoazepan-3-yl]amino}[1,2,4]triazolo[1,5-c]quinazolin-2-yl)benzonitrile], the IC50 on AHR [1] (setting [3]) worked out at 1.51 nM; against AHR [2], 1.02e-08 M.
`CC[C@@H](Nc1nc2ccccc2c2nc(-c3cccc(C#N)c3)nn12)C(N)=O` [Example 382, (2R)-2-{[2-(3-cyanophenyl)[1,2,4]triazolo[1,5-c]quinazolin-5-yl]amino}butanamide]: the IC50 was found to be 1.25 nM at AHR [1] (setting [3]) and 7.64e-09 M against AHR [2].
With `N#Cc1cccc(-c2nc3c4ccccc4nc(N[C@@H]4CCNC4=O)n3n2)c1` [Example 383, 3-(5-{[(3R)-2-oxopyrrolidin-3-yl]amino}[1,2,4]triazolo[1,5-c]quinazolin-2-yl)benzonitrile], the IC50 came out at 388 nM at AHR [1] (setting [3]) and 1.39e-07 M at AHR [2].
For `N#Cc1cccc(-c2nc3c4ccccc4nc(N[C@@H]4CCCNC4=O)n3n2)c1` [Example 384, 3-(5-{[(3R)-2-oxopiperidin-3-yl]amino}[1,2,4]triazolo[1,5-c]quinazolin-2-yl)benzonitrile], in that order: 72.2 nM and 2.73e-07 M.
With `N#Cc1cccc(-c2nc3c4ccccc4nc(N[C@H]4CCCCNC4=O)n3n2)c1` [Example 385, 3-(5-{[(3S)-2-oxoazepan-3-yl]amino}[1,2,4]triazolo[1,5-c]quinazolin-2-yl)benzonitrile], the IC50 at AHR [1] (setting [3]) amounted to 146 nM; against AHR [2] it was 1.97e-06 M.
With `CC[C@@H](Nc1nc2ccccc2c2nc(-c3ccc(C#N)cc3)nn12)C(N)=O` [Example 386, (2R)-2-{[2-(4-cyanophenyl)[1,2,4]triazolo[1,5-c]quinazolin-5-yl]amino}butanamide], the IC50 at AHR [1] (setting [3]) worked out at 0.346 nM; on AHR [2], 6.02e-10 M.
For `N#Cc1ccc(-c2nc3c4ccccc4nc(N[C@@H]4CCCCNC4=O)n3n2)cc1` [Example 387, 4-(5-{[(3R)-2-oxoazepan-3-yl]amino}[1,2,4]triazolo[1,5-c]quinazolin-2-yl)benzonitrile], in that order: 0.398 nM and 7.93e-10 M.
Regarding `N#Cc1ccc(-c2nc3c4ccccc4nc(N[C@@H]4CCCNC4=O)n3n2)cc1` [Example 389, 4-(5-{[(3R)-2-oxopiperidin-3-yl]amino}[1,2,4]triazolo[1,5-c]quinazolin-2-yl)benzonitrile], the IC50 at AHR [1] (setting [3]) stood at 26.7 nM; against AHR [2] it was 1.76e-08 M.
`O=C1NCCCC[C@H]1Nc1nc2ccccc2c2nc(-c3ccn4ccnc4c3)nn12` [Example 390, (3R)-3-{[2-(Imidazo[1,2-a]pyridin-7-yl)[1,2,4]triazolo[1,5-c]quinazolin-5-yl]amino}azepan-2-one]: the IC50 on AHR [1] (setting [3]) was 1.02 nM; at AHR [2], 1.38e-09 M.
For the compound `COc1ccc(-c2nc3c4ccccc4nc(N[C@H](C)C(=O)NC(C)C)n3n2)cc1` [Example 391, N^2-[2-(4-Methoxyphenyl)[1,2,4]triazolo[1,5-c]quinazolin-5-yl]-N-propan-2-yl-D-alaninamide], the concentration for half-maximal inhibition (IC50) at AHR [1] (setting [3]) was determined as 46.1 nM; against AHR [2] it was 3.31e-08 M.
On to `COc1ccc(-c2nc3c4cc(C(C)C)ccc4nc(N[C@@H]4CCCCNC4=O)n3n2)cc1` [Example 392, (3R)-3-{[2-(4-Methoxyphenyl)-9-(propan-2-yl)[1,2,4]triazolo[1,5-c]quinazolin-5-yl]amino}azepan-2-one], for which the IC50 at AHR [1] (setting [3]) was determined as 31.5 nM; at AHR [2], 2.38e-07 M.
Consider `CC(C)c1cccc2c1nc(N[C@@H]1CCCCNC1=O)n1nc(-c3ccc(F)cc3)nc21` [Example 393, (3R)-3-{[2-(4-Fluorophenyl)-7-(propan-2-yl)[1,2,4]triazolo[1,5-c]quinazolin-5-yl]amino}azepan-2-one], for which the IC50 at AHR [1] (read-out: AHR Antagonism Mouse IC50, mouse Hepa 1c1c7 cells, 200 μM kynurenic acid, 20 hours) is 34.2 nM; on AHR [2], 4.34e-08 M.
Consider `CC(C)c1cccc2c1nc(N[C@@H]1CCCCNC1=O)n1nc(-c3cccc(F)c3)nc21` [Example 394, (3R)-3-{[2-(3-Fluorophenyl)-7-(propan-2-yl)[1,2,4]triazolo[1,5-c]quinazolin-5-yl]amino}azepan-2-one], for which the IC50 at AHR [1] (setting [3]) came out at 30.9 nM; on AHR [2], 1.16e-08 M.
